Several values for one entry are separate records, joined by “and”; a condition that tells them apart may be missing. Equal entries are not always repeated. Where two headings read alike, the source gives them in different places.
Tests used:
Enterovirus 71 = assay: CPE (cytoprotection) antiviral assay with MTS readout, Enterovirus 71 in RD cells; format: cell-based, Enterovirus (EV-71(H)), strain 71H; conditions: for EC50: 50% inhibition of virus replication, read-out: EC 50% (EC50)
Description: Viruses and cells were mixed in the presence of Balicatib (HB-121) and incubated for the assay duration as specified in Table 1. […] An antiviral effect or cytoprotective effect was considered to be observed when therapeutic agent (Balicatib or positive control indicated in Table 1) prevented virus replication. A standardized plate format was used for cytoprotective assays. Each plate contained cell control wells (cells only), virus control wells (cells plus virus), therapeutic agent cytotoxicity wells (cells plus therapeutic agent only), therapeutic agent colorimetric control wells (therapeutic agent only), background control wells (media only), as well as experimental wells (therapeutic agent plus cells plus virus). Samples were evaluated for antiviral efficacy with triplicate measurements to determine cytotoxicity, if detectable. […] Interferon (IFN) was used as positive controls in the assays were noted as IU/mL (bioactivity defined by International Units/mL was used from the certificate of analysis information provided by the vendor, PBL Assay Science, Piscataway, NJ). In Table 2, fields labeled as “Drug 1” or “Drug 2” indicate Cells + Virus + Drug; fields labeled as “Tox 1” or “Tox 2” indicate Cells + Drug 1 or Drug 2, respectively (toxicity tested in duplicate); Cells labeled as “Color 1” or “Color 2” = Media + Drug 1 or Drug 2, respectively (colorimetric background, no cells).
At assay termination, the assay plates were stained with the soluble tetrazolium-based dye MTS (CellTiter®96 Reagent, Promega) to determine cell viability and quantify compound toxicity. MTS is metabolized by the mitochondrial enzymes of metabolically active cells to yield a soluble formazan product, allowing the rapid quantitative analysis of cell viability and compound cytotoxicity. […] At termination of the assay, 10-25 µL of MTS reagent was added per well (10% final concentration based on volume) and the microtiter plates were then incubated for 2-3 hours at 37° C., (except Rhinovirus assay plates, which were incubated at 33° C.) 5% CO2 to assess cell viability. Adhesive plate sealers were used in place of the lids, the sealed plates were inverted several times to mix the soluble formazan product and the plate was read spectrophotometrically at 490/650 nm with a Molecular Devices SpectraMax i3 plate reader.
Using an in-house computer program, the CPE data analysis was conducted and included the calculation of EC50 (50% inhibition of virus replication), EC95 (95% inhibition of virus replication), CC50 (50% cytotoxicity), CC95 (95% cytotoxicity) and selectivity index values (SI = CC/EC; also referred to as Antiviral Index or AI).
The minimum inhibitory drug concentration that reduced plaque formation by 50% (EC50) and the minimum drug concentration that inhibited cell growth by 50% (CC50) were calculated. The selectivity index (SI) for each active compound was determined by dividing the CC50 by the EC50.

[1] = Cytotoxicity assay (MTS dye reduction) in the cells of the Enterovirus assay; format: cell-based; conditions: human
Description: (§1) Viruses and cells were mixed in the presence of Balicatib (HB-121) and incubated for the assay duration as specified in Table 1. […] An antiviral effect or cytoprotective effect was considered to be observed when therapeutic agent (Balicatib or positive control indicated in Table 1) prevented virus replication. A standardized plate format was used for cytoprotective assays. Each plate contained cell control wells (cells only), virus control wells (cells plus virus), therapeutic agent cytotoxicity wells (cells plus therapeutic agent only), therapeutic agent colorimetric control wells (therapeutic agent only), background control wells (media only), as well as experimental wells (therapeutic agent plus cells plus virus). Samples were evaluated for antiviral efficacy with triplicate measurements to determine cytotoxicity, if detectable. […] Interferon (IFN) was used as positive controls in the assays were noted as IU/mL (bioactivity defined by International Units/mL was used from the certificate of analysis information provided by the vendor, PBL Assay Science, Piscataway, NJ). […]
(§2) At assay termination, the assay plates were stained with the soluble tetrazolium-based dye MTS (CellTiter®96 Reagent, Promega) to determine cell viability and quantify compound toxicity. MTS is metabolized by the mitochondrial enzymes of metabolically active cells to yield a soluble formazan product, allowing the rapid quantitative analysis of cell viability and compound cytotoxicity. […] Adhesive plate sealers were used in place of the lids, the sealed plates were inverted several times to mix the soluble formazan product and the plate was read spectrophotometrically at 490/650 nm with a Molecular Devices SpectraMax i3 plate reader. […]
(§3) Cells were seeded at 2,500 to 40,000 cells per well in 96-well plates in replication medium as specified in Table 3. […] After the assay readout (duration) as specified in Table 1, cell viability was determined using MTS dye reduction. […]

RD cells = assay: as above; format: cell-based; conditions: RD cells, 4 days
Description: as §1, §2, §3

Adenovirus (Type 5) = assay: CPE antiviral assay (MTS), Adenovirus in HeLa cells; format: cell-based; conditions: CPE 6 days, at the concentrations tested
[2] = test system: Dengue virus, serotype 2 (DENV2); assay: CPE antiviral assay (MTS), Dengue virus in BHK-21 cells; format: cell-based, New Guinea C; conditions: CPE 5 days, at the concentrations tested
Description: (§4) Viruses and cells were mixed in the presence of Balicatib (HB-121) and incubated for the assay duration as specified in Table 1. […] An antiviral effect or cytoprotective effect was considered to be observed when therapeutic agent (Balicatib or positive control indicated in Table 1) prevented virus replication. A standardized plate format was used for cytoprotective assays. […] Samples were evaluated for antiviral efficacy with triplicate measurements to determine cytotoxicity, if detectable. […]
as §2

HIV-1 (IIIB) = assay: CPE antiviral assay (MTS), HIV-1 in MT-4 cells; format: cell-based; conditions: CPE 6 days, at the concentrations tested
Description: as §4, §2

Parainfluenza Type 3 = assay: CPE antiviral assay (MTS), Parainfluenza in LLC-MK2 7.1 cells; format: cell-based, Parainfluenza Type 3 C243; conditions: CPE 7 days, at the concentrations tested
Description: as §4, §2

[3] = test system: Respiratory syncytial virus (RSV); assay: CPE antiviral assay (MTS), RSV in HEp-2 cells; format: cell-based, Long; conditions: CPE 5 days, at the concentrations tested
Description: as §4, §2

Coxsackie (A7) (CoxA7) = assay: CPE antiviral assay (MTS), Coxsackie A7 in LLC-MK2 7.1 cells; format: cell-based; conditions: CPE 4 days, at the concentrations tested
Rhinovirus 14 (HRV 14) = assay: CPE antiviral assay (MTS), Rhinovirus 14 in H1 HeLa cells; format: cell-based, strain 1059; conditions: 33° C., CPE 4 days, at the concentrations tested
Measles = assay: CPE antiviral assay (MTS), Measles in MRC-5 cells; format: cell-based, Measles Virus (Edmonston); conditions: CPE 10 days, at the concentrations tested
Description: as §4, §2

Influenza A (Flu A. Cal) = assay: CPE antiviral assay (MTS), Influenza A in MDCK cells; format: cell-based, A/California/07/2009; conditions: CPE 3 days, at the concentrations tested
Description: as §4, §2

Influenza B (Flu B.Bris) = assay: CPE antiviral assay (MTS), Influenza B in MDCK cells; format: cell-based; conditions: CPE 3 days, at the concentrations tested
[4] = test system: SARS-CoV-2 (strain: BEI_USA-WA1/2020); assay: microbe, parasite or virus in culture; format: cell-based; conditions: Calu-3, 4 h pretreatment
SARS-CoV-2 = assay: microbe, parasite or virus in culture; format: cell-based; conditions: for EC90 / EC50: Calu-3, plaque assay; for EC90: estimated
[5] = test system: SARS-CoV-2 hCoV-19/USA/WA1/2020; format: cell-based
in vitro = conditions: human
[6] = Plasma concentration of Balicatib after oral dosing, based on human clinical dosing; conditions: 400 mg oral dosing, EC50 against SARS-CoV-2
[7] = Severe acute respiratory syndrome coronavirus 2

CCCN1CCN(c2ccc(C(=O)NC3(C(=O)NCC#N)CCCCC3)cc2)CC1 [Balicatib]
EC 25% (Enterovirus 71; 25% inhibition of virus replication, RD cells, CPE 4 days): 5.85 µM | EC50 (Enterovirus 71; RD cells, CPE 4 days, listed as HB-121): 22.1 µM | EC 95% (EC95) (Enterovirus 71; 95% inhibition of virus replication, RD cells, CPE 4 days): >30.0 µM | EC50 (Enterovirus 71; Enterovirus A, RD, 96 h, RD cells, CPE 4 days): ~20 µM | Selectivity Index (SI) 50% (Enterovirus 71; SI = CC50/EC50): >1.36 | Selectivity Index (SI) 25% (Enterovirus 71; SI = CC/EC at 25%): >5.13 | CC50 at 4 days [1]: > 30 µM | CC 25% (RD cells; 25% cytotoxicity): > 30.0 µM | CC 95% (CC95) (RD cells; 95% cytotoxicity): > 30.0 µM | antiviral efficacy (Adenovirus (Type 5)): not effective | antiviral efficacy [2]: not effective | antiviral efficacy (HIV-1 (IIIB)): not effective | antiviral efficacy (Parainfluenza Type 3): not effective | antiviral efficacy [3]: not effective | antiviral efficacy (Coxsackie (A7) (CoxA7)): not effective | antiviral efficacy (Rhinovirus 14 (HRV 14)): not effective | antiviral efficacy (Measles): not effective | antiviral efficacy (Influenza A (Flu A. Cal)): not effective | antiviral efficacy (Influenza B (Flu B.Bris)): not effective | EC50 ([4]; Severe acute respiratory syndrome coronavirus 2, MOI 0.01, 48 h post-infection, % infected cells (FIG. 1), read-out: approximate EC50): 0.25 to 0.5 µM | Overall % Inhibition (average of two experiments) Combined (SARS-CoV-2; 100 nM, 0.1 µM): 57.75% | Overall % Inhibition (average of two experiments) Combined (SARS-CoV-2; 10 µM): 99.4% | Selectivity Index (SI) (SARS-CoV-2; Calu-3 cells, calculated from CC50 and EC50): > 300 | inhibition at 0.1 µM (SARS-CoV-2; Severe acute respiratory syndrome coronavirus 2, Calu-3, 100 nM, read-out: Overall % Inhibition (average of two experiments) Combined): ~57% | inhibition at 0.3 µM (SARS-CoV-2; Severe acute respiratory syndrome coronavirus 2, Calu-3, 300 nM, read-out: Overall % Inhibition (average of two experiments) Combined): 90% | inhibition at 1 µM (SARS-CoV-2; Severe acute respiratory syndrome coronavirus 2, Calu-3, 1 µM, read-out: Overall % Inhibition (average of two experiments) Combined): ~68% | inhibition at 3 µM (SARS-CoV-2; Severe acute respiratory syndrome coronavirus 2, Calu-3, 3 µM, read-out: Overall % Inhibition (average of two experiments) Combined): ~100% | inhibition at 10 µM (SARS-CoV-2; Severe acute respiratory syndrome coronavirus 2, Calu-3, 10 µM, read-out: Overall % Inhibition (average of two experiments) Combined): ~100% | inhibition at 30 µM (SARS-CoV-2; Severe acute respiratory syndrome coronavirus 2, Calu-3, 30 µM, read-out: Overall % Inhibition (average of two experiments) Combined): ~100% | inhibition at 0.1 µM (SARS-CoV-2; Severe acute respiratory syndrome coronavirus 2, Calu-3, 72 h, 100 nM, MOI 0.1, 72 h, read-out: % Inhibition Experiment 1): 97.3% | inhibition at 0.1 µM (SARS-CoV-2; Severe acute respiratory syndrome coronavirus 2, Calu-3, 72 h, 100 nM, MOI 0.1, 72 h, read-out: % Inhibition Experiment 2): 18% | inhibition at 0.3 µM (SARS-CoV-2; Severe acute respiratory syndrome coronavirus 2, Calu-3, 72 h, 300 nM, MOI 0.1, 72 h, read-out: % Inhibition Experiment 2): 90% | inhibition at 1 µM (SARS-CoV-2; Severe acute respiratory syndrome coronavirus 2, Calu-3, 72 h, 1 µM, MOI 0.1, 72 h, read-out: % Inhibition Experiment 1): 64% | inhibition at 1 µM (SARS-CoV-2; Severe acute respiratory syndrome coronavirus 2, Calu-3, 72 h, 1 µM, MOI 0.1, 72 h, read-out: % Inhibition Experiment 2): 72.5% | inhibition at 3 µM (SARS-CoV-2; Severe acute respiratory syndrome coronavirus 2, Calu-3, 72 h, 3 µM, MOI 0.1, 72 h, read-out: % Inhibition Experiment 2): 100% | inhibition at 10 µM (SARS-CoV-2; Severe acute respiratory syndrome coronavirus 2, Calu-3, 72 h, 10 µM, MOI 0.1, 72 h, read-out: % Inhibition Experiment 1): 98.8% | inhibition at 10 µM (SARS-CoV-2; Severe acute respiratory syndrome coronavirus 2, Calu-3, 72 h, 10 µM, MOI 0.1, 72 h, read-out: % Inhibition Experiment 2): 100% | inhibition at 30 µM (SARS-CoV-2; Severe acute respiratory syndrome coronavirus 2, Calu-3, 72 h, 30 µM, MOI 0.1, 72 h, read-out: % Inhibition Experiment 2): 100% | EC90 (SARS-CoV-2; [7]): 1 to 3 µM | EC50 (SARS-CoV-2; Severe acute respiratory syndrome coronavirus 2, estimated from two studies): 0.05 to 0.6 µM | titer reduction in virus titer (TCID50) ([5]; 0.3 µM (lowest test concentration), A549-hACE2, MOI 0.1, 24 hours): > 3 log | titer reduction vs virus without Balicatib (TCID50) ([5]; 5 µM, A549-hACE2, MOI 0.1, 24 hours): more than 6 log | reduction of SARS-CoV-2 WA1/2020 ([5]; A549-hACE2 cells, 24 hours): significant reduction | Cell Appearance (Calu-3 human cells; 100 µM (Table 6)): No CPEs | Viability (%) at 24 hr time point (Calu-3 human cells; 100 µM, 24 hr, 98.7% viability at seeding): 71.0% and 72.1% | effect on cell growth (Calu-3 human cells; 100 µM, Calu-3): little to no effect on cell growth | effect on cellular viability (Calu-3 human cells; 100 µM, Calu-3): does not alter cellular viability | Count (cells/ml) at 24 hr time point (Calu-3 human cells; 100 µM, seeded at 2.0E5 per well, 24 hr): 1.8e5 cells/ml and 1.6e5 cells/ml | CC50 (in vitro): > 100 µM | time plasma concentration is above EC50 [6]: 16 to 20 h

C[C@@H]1CS/C(=N\NC(=O)C(=O)[C@@H](NC(=O)C2CCCCCC2)C2CCOCC2)N1C [ONO-5334]
antiviral activity (percentage of virus infected cells vs concentration) ([4]; MOI 0.01, 48 h post-infection (FIG. 2, FIG. 3)): demonstrated antiviral activity | % Inhibition (SARS-CoV-2; 1 µM (Table 7)): 79% | % Inhibition (SARS-CoV-2; 10 µM (Table 7)): 100% | EC50 (SARS-CoV-2; estimated from 1 and 10 µM): < 1 µM

CC(C)(F)C[C@H](N[C@@H](c1ccc(-c2ccc(S(C)(=O)=O)cc2)cc1)C(F)(F)F)C(=O)NC1(C#N)CC1 [Odanacatib]
inhibition at 1 µM (SARS-CoV-2; Severe acute respiratory syndrome coronavirus 2, Calu-3, 1 µM (Table 7), read-out: % Inhibition): 48.4% | inhibition at 10 µM (SARS-CoV-2; Severe acute respiratory syndrome coronavirus 2, Calu-3, 10 µM (Table 7), read-out: % Inhibition): 97.1% | EC90 (SARS-CoV-2; [7]): 1 to 10 µM | EC50 (SARS-CoV-2; Severe acute respiratory syndrome coronavirus 2, estimated from 1 and 10 µM): ~1 µM

— patent publication US20230142126A1, “METHODS AND COMPOSITIONS FOR THE TREATMENT OF VIRAL DISEASES” (priority 2020, published 2023)
